Test results from ChEMBL document CHEMBL1201862, “PubChem BioAssay data set” (2004).
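Assay format: 96-well plates, 48-hour exposure. GI50 = concentration required for 50% inhibition of growth.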 Active and inactive are the calls of the source. Cut-off read from the data, not from the text of the source: active = GI50 up to about 1.1 µM and inactive = higher.

How the values were obtained:
Assay in all cases: inhibition of tumour cell growth, NCI panel, 48 h
SF-539 = tested on: SF-539
SF-295 = tested on: SF-295
A498 = tested on: A498
786-0 = tested on: 786-0
SN12C = tested on: SN12C
M14 = tested on: M14
SK-OV-3 = tested on: SK-OV-3
SNB-19 = tested on: SNB-19
NCI-H522 = tested on: NCI-H522
SF-268 = tested on: SF-268
NCI-H460 = tested on: NCI-H460
OVCAR-5 = tested on: OVCAR-5
UACC-257 = tested on: UACC-257
U-251 = tested on: U-251
OVCAR-3 = tested on: OVCAR-3

**Q.** `CCC(C)(O)c1cn(-c2ccc(Cl)cc2)nn1` (centres undefined) was tested. Which GI50 (SF-539) did it give?
**A.** > 100 µM (inactive)

**Q.** And the GI50 (SF-295)?
**A.** > 100 µM (inactive)

**Q.** What about the GI50 (A498) of the same molecule?
**A.** > 100 µM (inactive)

**Q.** What about the GI50 (786-0) of the same molecule?
**A.** > 100 µM (inactive)

**Q.** And the GI50 (SN12C)?
**A.** > 100 µM (inactive)

**Q.** And the GI50 (M14)?
**A.** > 100 µM (inactive)

**Q.** And the GI50 (SK-OV-3)?
**A.** > 100 µM (inactive)

**Q.** And the GI50 (SNB-19)?
**A.** > 100 µM (inactive)

**Q.** What about the GI50 (NCI-H522) of the same molecule?
**A.** > 100 µM (inactive)

**Q.** And the GI50 (SF-268)?
**A.** > 100 µM (inactive)

**Q.** What about the GI50 (NCI-H460) of the same molecule?
**A.** > 100 µM (inactive)

**Q.** And the GI50 (OVCAR-5)?
**A.** > 100 µM (inactive)

**Q.** And the GI50 (UACC-257)?
**A.** > 100 µM (inactive)

**Q.** What about the GI50 (U-251) of the same molecule?
**A.** > 100 µM (inactive)

**Q.** And the GI50 (OVCAR-3)?
**A.** > 100 µM (inactive)

**Q.** Which results are given for `COC(=O)C1C2C=CC(C2)C1(C(=O)OC)[S+]([O-])CC12CCC(CC1O)C2(C)C` (centres undefined)?
**A.** GI50 (SF-539): > 100 µM (inactive); GI50 (SF-295): > 100 µM (inactive); GI50 (A498): > 100 µM (inactive); GI50 (786-0): > 100 µM (inactive); GI50 (SN12C): > 100 µM (inactive); GI50 (M14): > 100 µM (inactive); GI50 (SK-OV-3): > 100 µM (inactive); GI50 (SNB-19): > 100 µM (inactive); GI50 (NCI-H522): > 100 µM (inactive); GI50 (SF-268): > 100 µM (inactive); GI50 (NCI-H460): > 100 µM (inactive); GI50 (OVCAR-5): > 100 µM (inactive); GI50 (UACC-257): > 100 µM (inactive); GI50 (U-251): > 100 µM (inactive); GI50 (OVCAR-3): > 100 µM (inactive)

**Q.** How did the GI50 (SF-539) turn out when `CN1CN(C2OC(CO)C(O)C2O)c2nc(N)[nH]c(=O)c21` (centres undefined) was run?
**A.** > 100 µM (inactive)

**Q.** And the GI50 (SF-295)?
**A.** > 100 µM (inactive)

**Q.** What about the GI50 (A498) of the same molecule?
**A.** > 100 µM (inactive)

**Q.** And the GI50 (786-0)?
**A.** > 100 µM (inactive)

**Q.** And the GI50 (SN12C)?
**A.** > 100 µM (inactive)

**Q.** And the GI50 (M14)?
**A.** > 100 µM (inactive)

**Q.** What about the GI50 (SK-OV-3) of the same molecule?
**A.** > 100 µM (inactive)

**Q.** What about the GI50 (SNB-19) of the same molecule?
**A.** > 100 µM (inactive)

**Q.** And the GI50 (NCI-H522)?
**A.** 5.15 µM (inactive)

**Q.** What about the GI50 (SF-268) of the same molecule?
**A.** > 100 µM (inactive)

**Q.** And the GI50 (NCI-H460)?
**A.** > 100 µM (inactive)

**Q.** What about the GI50 (OVCAR-5) of the same molecule?
**A.** > 100 µM (inactive)

**Q.** What about the GI50 (UACC-257) of the same molecule?
**A.** > 100 µM (inactive)

**Q.** And the GI50 (U-251)?
**A.** > 100 µM (inactive)

**Q.** What about the GI50 (OVCAR-3) of the same molecule?
**A.** > 100 µM (inactive)

**Q.** `O=C(CC1=Nc2nnc(CCCCCCCc3nnc4n3C(=O)C(CC(=O)c3ccc5ccccc5c3)=N4)n2C1=O)c1ccc2ccccc2c1` was tested. Which GI50 (SF-539) did it give?
**A.** > 100 µM (inactive)

**Q.** What about the GI50 (SF-295) of the same molecule?
**A.** > 100 µM (inactive)

**Q.** What about the GI50 (A498) of the same molecule?
**A.** < 0.01 µM (active)

**Q.** What about the GI50 (786-0) of the same molecule?
**A.** > 100 µM (inactive)

**Q.** And the GI50 (SN12C)?
**A.** > 100 µM (inactive)

**Q.** And the GI50 (M14)?
**A.** > 100 µM (inactive)

**Q.** And the GI50 (SK-OV-3)?
**A.** > 100 µM (inactive)

**Q.** And the GI50 (SNB-19)?
**A.** > 100 µM (inactive)

**Q.** What about the GI50 (NCI-H522) of the same molecule?
**A.** > 100 µM (inactive)

**Q.** What about the GI50 (SF-268) of the same molecule?
**A.** > 100 µM (inactive)

**Q.** What about the GI50 (NCI-H460) of the same molecule?
**A.** > 100 µM (inactive)

**Q.** And the GI50 (OVCAR-5)?
**A.** > 100 µM (inactive)

**Q.** And the GI50 (UACC-257)?
**A.** > 100 µM (inactive)

**Q.** What about the GI50 (U-251) of the same molecule?
**A.** > 100 µM (inactive)

**Q.** And the GI50 (OVCAR-3)?
**A.** > 100 µM (inactive)

**Q.** What does the source list for `COc1cc2c(cc1OC)-c1cc(OC)c(OC)cc1[C@H]1CN3CCC[C@@]3(O)C=C21`?
**A.** GI50 (SF-539): < 0.0001 µM (active); GI50 (SF-295): < 0.0001 µM (active); GI50 (A498): < 0.0001 µM (active); GI50 (786-0): < 0.0001 µM (active); GI50 (SN12C): < 0.0001 µM (active); GI50 (M14): < 0.0001 µM (active); GI50 (SK-OV-3): < 0.0001 µM (active); GI50 (SNB-19): < 0.0001 µM (active); GI50 (NCI-H522): < 0.0001 µM (active); GI50 (SF-268): < 0.0001 µM (active); GI50 (NCI-H460): < 0.0001 µM (active); GI50 (OVCAR-5): < 0.0001 µM (active); GI50 (UACC-257): < 0.0001 µM (active); GI50 (U-251): < 0.0001 µM (active); GI50 (OVCAR-3): < 0.0001 µM (active)

**Q.** With `C[C@]12CC/C(=N\O)C=C1CC[C@@H]1C2CC[C@@]2(C)C1CC[C@@H]2OC1CCCCO1` (some centres undefined) as the molecule, how does the GI50 (SF-539) read?
**A.** > 10 µM (inactive)

**Q.** And the GI50 (SF-295)?
**A.** 18.5 µM (inactive)

**Q.** What about the GI50 (A498) of the same molecule?
**A.** > 100 µM (inactive)

**Q.** And the GI50 (786-0)?
**A.** 17.7 µM (inactive)

**Q.** And the GI50 (SN12C)?
**A.** > 10 µM (inactive)

**Q.** And the GI50 (M14)?
**A.** 18.3 µM (inactive)

**Q.** What about the GI50 (SK-OV-3) of the same molecule?
**A.** 21.9 µM (inactive)

**Q.** What about the GI50 (SNB-19) of the same molecule?
**A.** 18.3 µM (inactive)

**Q.** And the GI50 (NCI-H522)?
**A.** 17.4 µM (inactive)

**Q.** And the GI50 (SF-268)?
**A.** 23.3 µM (inactive)

**Q.** What about the GI50 (NCI-H460) of the same molecule?
**A.** 20.4 µM (inactive)

**Q.** And the GI50 (OVCAR-5)?
**A.** 15.5 µM (inactive)

**Q.** And the GI50 (UACC-257)?
**A.** 20.4 µM (inactive)

**Q.** What about the GI50 (U-251) of the same molecule?
**A.** 17.9 µM (inactive)

**Q.** What about the GI50 (OVCAR-3) of the same molecule?
**A.** 16.9 µM (inactive)

**Q.** Which GI50 (SF-539) does the source give for `O=C1/C(=N\O)c2ccccc2S1(=O)=O` here?
**A.** > 100 µM (inactive)

**Q.** What about the GI50 (SF-295) of the same molecule?
**A.** > 100 µM (inactive)

**Q.** What about the GI50 (A498) of the same molecule?
**A.** 39.7 µM (inactive)

**Q.** What about the GI50 (786-0) of the same molecule?
**A.** 61 µM (inactive)

**Q.** And the GI50 (SN12C)?
**A.** > 100 µM (inactive)

**Q.** What about the GI50 (M14) of the same molecule?
**A.** > 100 µM (inactive)

**Q.** And the GI50 (SK-OV-3)?
**A.** > 100 µM (inactive)

**Q.** What about the GI50 (SNB-19) of the same molecule?
**A.** > 100 µM (inactive)

**Q.** What about the GI50 (NCI-H522) of the same molecule?
**A.** 60 µM (inactive)

**Q.** And the GI50 (SF-268)?
**A.** 80.9 µM (inactive)

**Q.** And the GI50 (NCI-H460)?
**A.** > 100 µM (inactive)

**Q.** What about the GI50 (OVCAR-5) of the same molecule?
**A.** > 100 µM (inactive)

**Q.** What about the GI50 (UACC-257) of the same molecule?
**A.** > 100 µM (inactive)

**Q.** And the GI50 (U-251)?
**A.** > 100 µM (inactive)
